Reference: BindingDB's records for doi:10.1016/0014-5793(95)01389-x (Max-Planck-Institut, 1995)

Target: 5-hydroxytryptamine receptor 5A (Mus musculus, UniProt P30966)
Sequence (P30966 whole entry): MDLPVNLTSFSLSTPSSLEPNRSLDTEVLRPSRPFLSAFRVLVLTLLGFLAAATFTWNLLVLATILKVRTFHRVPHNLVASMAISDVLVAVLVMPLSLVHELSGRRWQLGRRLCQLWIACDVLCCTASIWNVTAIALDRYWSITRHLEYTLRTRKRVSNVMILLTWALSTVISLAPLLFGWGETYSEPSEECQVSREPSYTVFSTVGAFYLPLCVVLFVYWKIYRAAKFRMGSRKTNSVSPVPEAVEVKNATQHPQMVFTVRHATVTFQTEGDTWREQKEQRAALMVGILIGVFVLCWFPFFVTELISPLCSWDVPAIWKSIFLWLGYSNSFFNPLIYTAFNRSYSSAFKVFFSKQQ

Compared with `CC[C@@H](CO)NC(=O)[C@@H]1C=C2c3cccc4c3c(cn4C)C[C@H]2N(C)C1`, `CN1CC(C(=O)O)C=C2c3cccc4[nH]cc(c34)CC21` (centres undefined) [NSC_622688] is 4-fold higher in Ki: 500 nM for the first, 2000 nM for the second. The first binds more tightly here.

Going from `CN(C)CCc1c[nH]c2ccc(O)cc12` [3-[2-(dimethylamino)ethyl]indol-5-ol] to `CN1C[C@H](C(=O)N[C@]2(C)O[C@@]3(O)[C@@H]4CCCN4C(=O)[C@H](Cc4ccccc4)N3C2=O)C=C2c3cccc4[nH]cc(c34)C[C@H]21` [12'-hydroxy-2'-methyl-5'alpha-(phenylmethyl)ergotaman-3',6',18-trione], the Ki falls from 2900 nM to 38 nM (76-fold).
